Measured values from patent publication US20070224635A1, “Regulated Stop Codon Readthrough” (Maxygen Holdings, Ltd., priority 2004, published 2007).

Legend:
[1] = tested on: UGA stop codon (UGAC tetranucleotide); experiment: FACS analysis of membrane-anchored protein C after G-418-induced readthrough, PC-UGAC-GPI construct; type: cell-based, Chinese hamster (CHO-K1 cells); settings: with G-418, background in absence of G-418 about 13%
Description: (§1) As a control, the retroviral vector pLenti6-PC-GPI was used to transfect HEK293FT cells and produce retrovirus particles. After 48 hours, supernatants containing retroviral particles were harvested, filter-sterilized to remove cell debris, and subsequently used to infect CHO-K1 cells. CHO-K1 cells were selected for resistance to the Blasticidin antibiotic at the concentration of 5 mg/l for 10 days. The resulting pools of Blasticidin-resistant cells were transferred into 6 culture flasks for each cell pool and grown to 25% confluency. To induce translational readthrough, the antibiotic G-418 was added to the culture flasks at final concentrations ranging from 12.5 mg/l to 100 mg/l and flasks were incubated for another 48 hours at 37° C. […] Labeled retroviral cell lines were analyzed by FACS for membrane-anchored recombinant PC using a FACScalibur™ (Becton Dickinson) instrument with an excitation wave length of 488 nm and an emission filter of 585 nm.
(§2) The results shown in FIG. 4 illustrate that both cell lines expressing the PC-UAAC-GPI and PC-UGAC-GPI reporters display PC at the cell surface in the presence of aminoglycoside. […] Furthermore, the amount of recombinant membrane-anchored PC is more abundant for the PC-UGAC-GPI construct than for the PC-UAAC-GPI construct, and this applies to all aminoglycoside concentrations that were assessed.

UAA stop codon = experiment: FACS detection of membrane-anchored FVII (FVII-UAA-GPI) in transfected CHO-K1 cells without antibiotic resistance gene; type: cell-based, Chinese hamster (CHO-K1 cells)
Description: The resulting PCR product encompassed the CMV promoter, the b-globin intron, the FVII gene, the UAA stop codon, the GPI anchor signal and the b-globin poly-adenylation signal (FIG. 11). The PCR product was purified and subsequently used to transfect CHO-Kcells with Lipofectamine™ 2000 (Invitrogen) as described above. Additionally, a flask containing CHO-K1 cells was incubated with Lipofectamine™ 2000 but without DNA as a negative control. Five hours after transfection, G-418 was added to the two culture flasks at a final concentration of 100 mg/L to promote translational readthrough. […] Labeled retroviral cell lines were analyzed by FACS for membrane-anchored recombinant FVII using a FACSVantage™ (Becton Dickinson) instrument with an excitation wave length of 488 nm and an emission filter of 585 nm.
Because expression of the recombinant FVII protein is correlated with expression of the FVII-GPI protein fusion arising from aminoglycoside-mediated translational readthrough, transgenic cells can be selected by means of FACS based on membrane-anchored FVII detection. […] Approximately 2500 cells from gate R3 of the transfected cells were sorted as a pool and grown for 9 days in the absence of antibiotic, after which translational readthrough was induced by treating the cells with G-418 at 100 mg/L for 2 days. […]

[2] = tested on: UAA stop codon (UAAC tetranucleotide); experiment: FACS analysis of membrane-anchored protein C after G-418-induced readthrough, PC-UAAC-GPI construct; type: cell-based, Chinese hamster (CHO-K1 cells); settings: with G-418, background in absence of G-418 about 0.5%
Description: as §1, §2

premature UAG mutation = settings: cultured mammalian cells; cited from earlier work
[3] = tested on: nonsense mutation in CFTR; settings: cell line carrying a nonsense mutation in CFTR; cited from earlier work

Compound: CN[C@@H]1[C@@H](O)[C@@H](O[C@@H]2[C@@H](O)[C@H](O[C@H]3O[C@H]([C@@H](C)O)[C@@H](O)[C@H](O)[C@H]3N)[C@@H](N)C[C@H]2N)OC[C@]1(C)O [G-418]
- FACS-positive cells (up to) [1]: about 25%
- cells positive for FVII display, second FACS round (UAA stop codon; G-418 100 mg/L for 2 days after 9 days growth, non-transfected control 1.1%, FIG. 13): 3.4%
- transfected CHO-K1 cells exhibiting fluorescence signals (gate R3), first FACS round (UAA stop codon; G-418 100 mg/L, negative control 0.4%, FIG. 12): 7.1%
- FACS-positive cells (up to) [2]: about 10%

Compound: NC[C@@H]1O[C@H](O[C@H]2[C@@H](O)[C@H](O[C@@H]3[C@@H](O)[C@H](N)C[C@H](N)[C@H]3O[C@H]3O[C@H](CO)[C@@H](O)[C@H](O)[C@H]3N)O[C@@H]2CO)[C@H](N)[C@@H](O)[C@@H]1O [paromomycin]
- synthesis of full-size protein from mutant gene (premature UAG mutation): partially restore the synthesis of a full-size protein

Compound: gentamicin
- expression of CFTR protein [3]: restore the expression
